From paper PMC6188138, “Carnosol suppresses patient-derived gastric tumor growth by targeting RSK2” (Oncotarget, 2018)

Biological target: T1, RSK2 (Homo sapiens, UniProt P51812)
T1 construct: gene RPS6KA3
Assay: in vitro kinase assay with recombinant active RSK2 and ATF1 substrate (Western blot); supported by pull-down of recombinant RSK2 with carnosol-Sepharose 4B beads
Assay type: biochemical

T1 sequence (P51812 whole entry): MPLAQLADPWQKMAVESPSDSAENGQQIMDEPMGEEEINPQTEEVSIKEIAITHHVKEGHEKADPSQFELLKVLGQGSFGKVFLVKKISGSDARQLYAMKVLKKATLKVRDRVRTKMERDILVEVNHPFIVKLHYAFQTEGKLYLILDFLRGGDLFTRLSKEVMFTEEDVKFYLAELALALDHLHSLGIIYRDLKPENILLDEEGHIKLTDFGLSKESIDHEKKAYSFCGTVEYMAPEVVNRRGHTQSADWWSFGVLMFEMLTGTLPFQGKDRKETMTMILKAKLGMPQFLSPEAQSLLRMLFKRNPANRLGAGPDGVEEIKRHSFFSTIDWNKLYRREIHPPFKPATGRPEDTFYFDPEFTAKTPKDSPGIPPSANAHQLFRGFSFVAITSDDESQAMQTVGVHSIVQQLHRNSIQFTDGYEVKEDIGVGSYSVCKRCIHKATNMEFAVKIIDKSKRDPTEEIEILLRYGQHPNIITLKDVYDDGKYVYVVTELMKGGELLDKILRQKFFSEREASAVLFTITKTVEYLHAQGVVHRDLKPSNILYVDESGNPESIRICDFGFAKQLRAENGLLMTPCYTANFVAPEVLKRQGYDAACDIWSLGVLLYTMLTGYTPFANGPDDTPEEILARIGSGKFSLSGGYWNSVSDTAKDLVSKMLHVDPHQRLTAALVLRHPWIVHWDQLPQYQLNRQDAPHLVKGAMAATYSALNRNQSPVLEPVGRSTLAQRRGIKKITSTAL

- IC50: ~5.5 µM
Compound: CC(C)c1cc2c(c(O)c1O)[C@@]13CCCC(C)(C)[C@@H]1C[C@@H]2OC3=O [Carnosol]
